Results on 65 compounds are retold here after a melting point compilation (Tetko et al.; mined from patent text by program, amines drawn as free bases though some values may be those of a salt).

One may read the melting point as the temperature, or range, at which the solid turns liquid.

`O=S(=O)(c1ccccc1)c1ccc(/C=C/C(O)(C(F)F)C(F)F)cc1` showed a melting point of 123 to 124 °C.

In the case of `O=COC1(N=NC2(OC=O)CCCCC2)CCCCC1`, the melting point lay in the range of 97 to 99.5 °C. To `CCc1cc2c(c(Sc3ccccc3)cc(=O)n2Cc2ccc(C(=O)O)cc2)c(CC)n1` belongs 260 to 262 °C. To `C#Cc1ccc(-c2c(C)nnc(Cl)c2-c2c(F)cc(F)cc2F)cc1` belongs 174 to 175 °C; to `Cc1oc(-c2ccccc2)nc1COc1ccc(CC2SC(=O)NC2=O)cn1` (stereo not given), 151 to 152 °C; to `CCOc1ccnc(C(C)NC(=O)Nc2ccc(Br)cn2)c1F` (stereo not given), 143 to 145 °C. Turning to `CCOC(=O)C1=C(C)Nc2ccnc(OC(C)C)c2C1c1cccc2nonc12` (stereo not given), the melting point lay in the range of 134 to 136 °C.

As to `Cc1cc(Cc2cnc(NCCCN(Cc3ccccc3)c3ccccn3)[nH]c2=O)cnc1C`, the melting point lay in the range of 95 to 99 °C.

For `COC(=O)c1cc(Cl)sc1S(=O)(=O)Cl`, the melting point is 95 to 97 °C. In the case of `Cc1cc2[nH]c(=O)ccc2c(Br)n1` it was 276 to 278 °C. As to `CC(N)Cc1cccc(N)c1` (stereo not given), the melting point lay in the range of 78 to 79 °C.

The compound `CCOC(=O)c1cccc(O)c1C` returned a melting point of 58 to 60 °C. `COC(=O)c1ccccc1C(=O)c1ccc(N2CCC(N3C(=O)OCc4ccc(Cl)cc43)CC2)c([N+](=O)[O-])c1` came in with a melting point of 90 to 92 °C. On to `COc1cccc(CNC(=O)c2nc3ccc(C#N)cc3c(=O)[nH]2)c1`, for which the melting point lay within 206 to 208 °C.

In turn, `N=C(NS(=O)(=O)c1ccc(F)cc1)N1CC(c2ccccc2)C(c2ccc(Cl)cc2)=N1` (stereo not given) had a melting point of 214 to 215 °C.

`O=C(Nc1cccc(S(=O)(=O)N2CCCC2CO)c1)c1cnn2c(C(F)(F)F)cc(-c3ccc(Cl)cc3)nc12` (stereo not given) returned a melting point of 227 to 229 °C. As to `N=C(N)NNC1=NS(=O)(=O)c2ccccc21`, the melting point fell in the range of 252 to 253 °C. For `CC(=O)OC1CSC(Oc2cncc(-c3ccncc3Cl)c2)C(OC(C)=O)C1OC(C)=O` (stereo not given), the melting point turned out to be 175 °C. In the case of `CCOc1nn(Cc2ccc(Cl)cc2Cl)cc1CCCOc1cc(CCC(=O)O)n(Cc2ccccc2)n1` it was 84 to 85 °C. For the compound `COc1cc(-c2ncc(C(F)(F)F)cc2Cl)c(F)cc1Cl`, the melting point lay within 105 to 106 °C. `CC12CCC3C(CC=C4CC(O[Si](C)(C)C(C)(C)C)CCC43C)C1CCC2=O` (stereo not given) returned a melting point of 146 to 148 °C. In the case of `CNc1ccccc1C(=O)COC(=O)c1ccccc1` it was 85 to 87 °C; in that of `CCCCCCSc1ccc(SCCCCCC)c(C(=O)O)n1`, 40 to 42 °C; in that of `O=C(O)c1ccc([N+](=O)[O-])c(C(=O)O)c1`, 257 to 258 °C.

`FC(F)(F)c1ccc(-c2nc(-c3ccccn3)cs2)cc1` registered a melting point of 123 to 127 °C. To `COc1ccc(S(=O)(=O)C2CC(=O)NC2=O)cc1` (stereo not given) belongs 144 to 146 °C. To `O=C(Cc1ccccc1)N1CCC2(Cc3ccccc3O2)C1` (stereo not given) belongs 98 to 99 °C; to `CSc1cncc(Oc2ccc(Cl)c(Cl)c2)c1`, 55 °C; to `Cc1cc(O)c(SC(C)(C)C)c(=O)o1`, 108 to 112 °C. `Cc1cn2c(=O)c3cc(S(=O)(=O)Cl)ccc3nc2s1`: the melting point lay in the range of 206 to 209 °C. To `CC(C(=O)O)C(=O)NCCC=C1c2ccccc2CCc2ccccc21` (stereo not given) belongs 174 to 176 °C. `O=C(C=Cc1ccc(F)cc1)N1CCOCC1` gave a melting point of 136 to 137 °C. In the case of `Clc1ccc(Nc2nc(-c3cccc(Cl)n3)nc3ccccc23)cc1` it was 212 to 213 °C; in that of `CSc1ccc(C(=O)c2cc(-c3cccnc3)c(N3CCOCC3)s2)cc1`, 127 °C.

Turning to `Cc1cc(OC(F)(F)C(F)Cl)ccc1NC(=O)CCCC=C(F)F` (stereo not given), the melting point is 59 to 60 °C. The compound `OC1CC=C(c2ccc(F)cc2)CC1` (stereo not given) registered a melting point of 73 to 74.5 °C.

The compound `Cc1cc(O)ccc1-n1cc(C(=O)O)c(=O)cc1C1CCC(N(C)C)CC1` (stereo not given) registered a melting point of 207 to 215 °C.

As to `CCCOCCOC(=O)C1=C(C)NC(C)=C(S(=O)(=O)N(C)CCOC)C1c1cccc([N+](=O)[O-])c1` (stereo not given), the melting point is 67 to 70 °C. The compound `CN1CCc2cc(Cl)c(O)cc2[C@H](c2ccccc2)C1` came in with a melting point of 188 to 189 °C. Compound `CCCCCCCCC(=O)N(C)O` gave a melting point of 29 °C. Compound `COc1ccc2cc(-c3cccnc3)cc(C)c2n1` registered a melting point of 117 to 118 °C.

`COc1cc2c(cc1[N+](=O)[O-])NC(=O)CN(CC1CC1)C2`: the melting point was 178 °C. In the case of `COc1ccc(-c2cc3nc(N4CCCCC4)c4ccccc4c3nn2)cc1` it was 168 to 169 °C. As for `C=C1c2cc(F)ccc2OC12CCN(C(C)=O)CC2`, the melting point was in the range of 114 to 116 °C. `O=c1[nH]c2c(O)cccc2n1CCN1CCN(c2cccc(C(F)(F)F)c2)CC1` displayed a melting point of 110 °C. In the case of `CC1CC2C3CCC4=CC(=O)C=CC4(C)C3C(O)CC2(C)C1C(=O)CI` (stereo not given) it was 153 °C; in that of `S=C=Nc1ccc2nccnc2c1Br`, 157 to 158 °C; in that of `O=C(O)CCCCCN1C(=O)c2ccc(C(=O)O)cc2C1=O`, 202 to 204 °C. To `CCOC(=O)Cc1c(C(=O)O)c(C)c(C(=O)c2ccc(Cl)cc2)n1C` belongs 197 to 198 °C; to `FC(F)(F)c1cccc(C(=CC2=NCCN2)c2ccc3ccccc3n2)c1`, 76.5 °C; to `CCC1c2cccn2-c2ccc(C(F)(F)F)cc2N1S(=O)(=O)c1ccc(O)c(Cl)c1` (stereo not given), 169 to 171 °C.

As to `CCC12CCC(=O)C=C1CCC2=O` (single isomer, unassigned; (+)), the melting point was 56 to 58.5 °C. To `C(=C\c1nc(COc2ccc(CCCn3ccnc3)cc2)cs1)/c1ccccc1` belongs 129 to 130 °C. `CCN(C(=O)OC)c1c(C(=O)c2cnoc2C2CC2)ccc(S(C)(=O)=O)c1Cl` gave a melting point of 128 to 131 °C.

Take `N#CCOc1c(-c2ccccc2)c(=O)[nH]c2cc(Cl)ccc12`: the melting point was in the range of 209 to 211 °C. As for `COC(=O)CCCNC(=O)c1cc(O)ccc1O`, the melting point was 155 to 159 °C. To `O=C(O)CCc1cc2cc(Cl)ccc2n1S(=O)(=O)c1ccc(Cl)cc1` belongs 158 to 160 °C; to `Cc1c(C(=O)O)oc2cc(-c3ccc(Cn4c(C)nc5ccccc54)cc3)ccc12`, 295 to 297 °C; to `CCCNC(=O)C(C)NC(=O)C(NC(=O)OCc1ccccc1)C(Cc1ccccc1)C(=O)O` (stereo not given), 169 to 171 °C.

On to `Cc1ccc(-c2c(C)c(NC(=O)CC(C)(C)C)c(C)c3c2OCC3c2ccc(C(C)C)cc2)cc1` (stereo not given), for which the melting point lay within 194 to 195 °C. The compound `OCc1cc2ccccc2c(-c2ccnc(Br)c2)c1CO` gave a melting point of 108 to 109 °C. In the case of `C=CC(C)(C)OC(=O)c1c(C)nc2c(cnn2CCCCC)c1N` it was 77.7 to 78.5 °C; in that of `N#CC1=C(Nc2ccc(F)cc2F)CCC1`, 116 to 119 °C. In turn, `CC1=CC(c2cccc([N+](=O)[O-])c2)C(C(=O)O)=NN1` (stereo not given) showed a melting point of 149 °C. In the case of `C=CCn1cc(-c2ccccc2)c(=O)c(-c2ccccc2)c1` it was 174 °C.
